PubChem BioAssay (NCI)
Values joined by “and” are separate entries in the source; they are usually repeats but may differ in a detail not shown here. Identical values can stand only once.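 Grown in 96-well plates, cells were treated for 48 hours with each compound at five concentrations. Insufficient inhibition: endpoint recorded as highest concentration tested. Here, GI50 denotes the concentration required for 50% inhibition of growth. TGI denotes the concentration required for complete inhibition of growth.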

What was measured:
Experiment in all cases: NCI tumour cell line growth inhibition, 48 h
UACC-257 melanoma = test system: UACC-257 melanoma
UACC-62 melanoma = test system: UACC-62 melanoma
TK-10 renal = test system: TK-10 renal
RPMI-8226 leukemia = test system: RPMI-8226 leukemia
MOLT-4 leukemia = test system: MOLT-4 leukemia
NCI-H522 lung = test system: NCI-H522 lung
HS 578T breast = test system: HS 578T breast
SN12K1 renal = test system: SN12K1 renal
CCRF-CEM leukemia = test system: CCRF-CEM leukemia
SK-OV-3 ovarian = test system: SK-OV-3 ovarian
RXF 393 renal = test system: RXF 393 renal
SF-268 CNS = test system: SF-268 CNS
A498 renal = test system: A498 renal
SR leukemia = test system: SR leukemia
CAKI-1 renal = test system: CAKI-1 renal
SK-MEL-5 melanoma = test system: SK-MEL-5 melanoma
OVCAR-4 ovarian = test system: OVCAR-4 ovarian
OVCAR-3 ovarian = test system: OVCAR-3 ovarian
HL-60(TB) leukemia = test system: HL-60(TB) leukemia
SF-539 CNS = test system: SF-539 CNS
T-47D breast = test system: T-47D breast
M19-MEL melanoma = test system: M19-MEL melanoma
U251 CNS = test system: U251 CNS
K-562 leukemia = test system: K-562 leukemia
SNB-78 CNS = test system: SNB-78 CNS
PC-3 prostate = test system: PC-3 prostate
DMS 114 small cell lung = test system: DMS 114 small cell lung
HOP-18 NSCLC = test system: HOP-18 NSCLC
COLO 205 colon = test system: COLO 205 colon
NCI-H226 lung = test system: NCI-H226 lung
A549 NSCLC = test system: A549 NSCLC
HCT-15 colon = test system: HCT-15 colon
BT-549 breast = test system: BT-549 breast
DLD-1 colon = test system: DLD-1 colon
MCF7 breast = test system: MCF7 breast
LOX IMVI melanoma = test system: LOX IMVI melanoma
HOP-92 NSCLC = test system: HOP-92 NSCLC
SN12C renal = test system: SN12C renal
SK-MEL-2 melanoma = test system: SK-MEL-2 melanoma
NCI-H460 lung = test system: NCI-H460 lung
SF-295 CNS = test system: SF-295 CNS
EKVX NSCLC = test system: EKVX NSCLC
786-0 renal = test system: 786-0 renal
HOP-62 NSCLC = test system: HOP-62 NSCLC
SW-620 colon = test system: SW-620 colon
SNB-75 CNS = test system: SNB-75 CNS
DU-145 prostate = test system: DU-145 prostate
XF 498 CNS = test system: XF 498 CNS
HCT-116 colon = test system: HCT-116 colon
KM12 colon = test system: KM12 colon
P388/ADR leukemia = test system: P388/ADR leukemia
OVCAR-8 ovarian = test system: OVCAR-8 ovarian
HT29 colon = test system: HT29 colon
KM20L2 colon = test system: KM20L2 colon
MDA-MB-435 = test system: MDA-MB-435
IGROV1 ovarian = test system: IGROV1 ovarian
NCI-H23 lung = test system: NCI-H23 lung
NCI/ADR-RES ovarian = test system: NCI/ADR-RES ovarian
MALME-3M melanoma = test system: MALME-3M melanoma
SK-MEL-28 melanoma = test system: SK-MEL-28 melanoma
MDA-MB-231 breast = test system: MDA-MB-231 breast
UO-31 renal = test system: UO-31 renal
P388 leukemia = test system: P388 leukemia
OVCAR-5 ovarian = test system: OVCAR-5 ovarian
MDA-N = test system: MDA-N
DMS 273 small cell lung = test system: DMS 273 small cell lung
ACHN renal = test system: ACHN renal
M14 melanoma = test system: M14 melanoma
HCC-2998 colon = test system: HCC-2998 colon
SNB-19 CNS = test system: SNB-19 CNS

In the case of `OC(CBr)C(O)C(O)C(O)CBr` (configuration not stated), the TGI (UACC-257 melanoma) is reported as greater than 100 µM, the GI50 (UACC-62 melanoma) is reported as 19.9 µM and 9.75 µM and the TGI (UACC-62 melanoma) is reported as > 75.4 µM and 65.1 µM. The TGI (TK-10 renal) was greater than 100 µM, the TGI (RPMI-8226 leukemia) was greater than 100 µM and the GI50 (MOLT-4 leukemia) was 10.8 µM. The TGI (MOLT-4 leukemia) was greater than 30.4 µM, the TGI (NCI-H522 lung) was greater than 100 µM and the TGI (HS 578T breast) was greater than 100 µM. It also gave a TGI (SN12K1 renal) greater than 100 µM, a TGI (CCRF-CEM leukemia) greater than 100 µM and a TGI (SK-OV-3 ovarian) greater than 100 µM. The TGI (RXF 393 renal) was greater than 100 µM, the GI50 (SF-268 CNS) was > 40.6 µM and 19.3 µM and the TGI (SF-268 CNS) was greater than 100 µM. The TGI (A498 renal) was greater than 100 µM, the TGI (SR leukemia) was greater than 100 µM and the GI50 (CAKI-1 renal) was 9.66 µM and 44.7 µM. It also gave a TGI (CAKI-1 renal) greater than 100 µM, a GI50 (SK-MEL-5 melanoma) greater than 100 µM and a TGI (SK-MEL-5 melanoma) greater than 100 µM. For the same molecule, the TGI (OVCAR-4 ovarian) was greater than 100 µM, the TGI (OVCAR-3 ovarian) was 97 µM and > 100 µM and the TGI (HL-60(TB) leukemia) was greater than 67.5 µM. For the same molecule, the TGI (SF-539 CNS) was greater than 100 µM, the TGI (T-47D breast) was greater than 100 µM and the TGI (M19-MEL melanoma) was greater than 100 µM. The TGI (U251 CNS) was greater than 100 µM, the TGI (K-562 leukemia) was greater than 100 µM and the TGI (SNB-78 CNS) was greater than 100 µM. It also gave a TGI (PC-3 prostate) greater than 100 µM, a TGI (DMS 114 small cell lung) greater than 100 µM and a TGI (HOP-18 NSCLC) greater than 100 µM. For the same molecule, the TGI (COLO 205 colon) was greater than 100 µM, the TGI (NCI-H226 lung) was greater than 100 µM and the TGI (A549 NSCLC) was greater than 100 µM. For the same molecule, the GI50 (HCT-15 colon) was greater than 100 µM, the TGI (HCT-15 colon) was greater than 100 µM and the TGI (BT-549 breast) was greater than 77 µM. The TGI (DLD-1 colon) was greater than 100 µM, the GI50 (MCF7 breast) was 13.7 µM and 40.1 µM and the TGI (MCF7 breast) was greater than 100 µM. For the same molecule, the TGI (LOX IMVI melanoma) was greater than 100 µM, the GI50 (HOP-92 NSCLC) was 35.8 µM and > 86.8 µM and the TGI (HOP-92 NSCLC) was greater than 100 µM. For the same molecule, the GI50 (SN12C renal) was 15.3 µM and 57.5 µM, the TGI (SN12C renal) was greater than 100 µM and the TGI (SK-MEL-2 melanoma) was greater than 100 µM. For the same molecule, the TGI (NCI-H460 lung) was greater than 100 µM, the GI50 (SF-295 CNS) was 23.2 µM and > 72.9 µM and the TGI (SF-295 CNS) was greater than 100 µM. For the same molecule, the TGI (EKVX NSCLC) was greater than 100 µM, the TGI (786-0 renal) was greater than 67.9 µM and the TGI (HOP-62 NSCLC) was greater than 100 µM. The TGI (SW-620 colon) was greater than 100 µM, the GI50 (SNB-75 CNS) was 13 µM and 51 µM and the TGI (SNB-75 CNS) was 68.4 µM and > 100 µM. For the same molecule, the TGI (DU-145 prostate) was greater than 100 µM, the TGI (XF 498 CNS) was greater than 100 µM and the GI50 (HCT-116 colon) was 37.3 µM and > 100 µM. For the same molecule, the TGI (HCT-116 colon) was greater than 100 µM, the TGI (KM12 colon) was greater than 100 µM and the TGI (P388/ADR leukemia) was greater than 51.9 µM. For the same molecule, the TGI (OVCAR-8 ovarian) was greater than 100 µM, the TGI (HT29 colon) was greater than 100 µM and the TGI (KM20L2 colon) was greater than 100 µM. For the same molecule, the TGI (MDA-MB-435) was greater than 100 µM, the GI50 (IGROV1 ovarian) was 49.4 µM and > 100 µM and the TGI (IGROV1 ovarian) was greater than 100 µM. The GI50 (NCI-H23 lung) was 12 µM and > 61.1 µM, the TGI (NCI-H23 lung) was greater than 100 µM and the GI50 (NCI/ADR-RES ovarian) was greater than 100 µM. The TGI (NCI/ADR-RES ovarian) was greater than 100 µM, the TGI (MALME-3M melanoma) was greater than 100 µM and the TGI (SK-MEL-28 melanoma) was greater than 100 µM. The TGI (MDA-MB-231 breast) was greater than 100 µM, the GI50 (UO-31 renal) was greater than 100 µM and the TGI (UO-31 renal) was greater than 100 µM. The TGI (P388 leukemia) was greater than 32.4 µM, the TGI (OVCAR-5 ovarian) was greater than 100 µM and the TGI (MDA-N) was greater than 100 µM. The TGI (DMS 273 small cell lung) was greater than 100 µM, the TGI (ACHN renal) was greater than 100 µM and the TGI (M14 melanoma) was greater than 100 µM. The TGI (HCC-2998 colon) was greater than 100 µM, the GI50 (SNB-19 CNS) was 36 µM and > 100 µM and the TGI (SNB-19 CNS) was greater than 100 µM.
